Assay results from patent US20140274971A1, “Systems and Methods of Using Chemically Bound Antibiotics Activated by Infections” (Osteoceramics, Inc., priority 2013, published 2014).
Read-outs that look alike come from different tables or passages of the source.

What was measured:
selected bacterium = assay type: cell-based; details: for effectiveness of other tetracyclines (in words): other experiments, bound to implant
Source text: They were rinsed with deionized water and dried. […] The solutions were saved for bioactivity testing.

Staph. A. = assay type: cell-based, Staphylococcus aureus
Source text: (§1) The setting solution is aqueous calcium chloride.

Pseudo. A. = assay type: cell-based, Psuedomonus aeruginosa
Source text: as §1

staphylococcus aureus = experiment: Repeated Kirby-Bauer test, ciprofloxacin-doped cement (Example 4); assay type: cell-based
Source text: A Kirby-Bauer test using staphylococcus aureus was repeated for ciprofloxacin-doped cement with more detail. All specimens, and the paper control, were 6 mm diameter.

Bacillus cereus = experiment: Kirby-Bauer method, tetracycline treated disks, periodontal bacteria; assay type: cell-based; details: disks treated with 0.1 mg/ml, 1 mg/ml and 10 mg/ml; 10^4 to 10^6 levels
Source text: (§2) Because tooth roots are in an anaerobic environment, bacteria were selected from those commonly encountered in periodontal disease for evaluation by the Kirby-Bauer method. They were ATCCJ177i: Bacillus cereus, Corynebacterium spp., Esccherichia coli, Pasteurella multocida and Staphylococcus spp. Each was doped on Mueller-Hinton agar at 10^4 to 10^6 levels.

Corynebacterium spp. = experiment: as above; assay type: cell-based; details: disks treated with 0.1 mg/ml, 1 mg/ml and 10 mg/ml; 10^4 to 10^6 levels
Source text: as §2

Esccherichia coli = experiment: as above; assay type: cell-based; details: disks treated with 0.1 mg/ml, 1 mg/ml and 10 mg/ml; 10^4 to 10^6 levels
Source text: as §2

Pasteurella multocida = experiment: as above; assay type: cell-based; details: disks treated with 0.1 mg/ml, 1 mg/ml and 10 mg/ml; 10^4 to 10^6 levels
Source text: as §2

Staphylococcus spp. = experiment: as above; assay type: cell-based; details: disks treated with 0.1 mg/ml, 1 mg/ml and 10 mg/ml; 10^4 to 10^6 levels
Source text: as §2

bacterial growth = experiment: Mueller-Hinton agar cultures of concretes made of tetracycline-treated grains; assay type: cell-based; details: concretes of treated grains with gypsum, calcium aluminate or zinc phosphate cement; cured 24 hours
Experimental: These were separated into sizes with sieves, to produce a range of size fractions; 12-20 mesh, 20-35 mesh, 35-65 mesh, 65-270 mesh, and minus 325 mesh. […] The tetracycline bonds to the tricalcium component of the grain surfaces. […] So the tricalcium phosphate phase is interconnected throughout the volume and is exposed at 50% of the surface area. […] The surface area was calculated assuming the particles were spheres of the median radius for the sieve fraction. […] The grains changed from white to orange as a result of the treatment. These grains were used to make cements for filling bone voids, combining 65% of one fraction with 15% of the second, finer, fraction in the series, 5% of the −325 mesh fraction and 15% of cement. Different cements were used, including gypsum, calcium aluminate and zinc phosphate cements. These concretes set in 5 to 10 minutes in a wet environment. After curing 24 hours at 100% humidity and 37° C., disks of these concretes were tested in Mueller-Hinton agar cultures to determine if they would inhibit bacterial growth. […] Thus the concrete prostheses have the properties needed to treat bone voids. Note that the size of the coarse fraction 12-20, […] or 35-65 will depend on the maximum particle size that must not exceed the maximum size of the void to be filled.

[1] = 10^−2 gr/gram of calcium aluminate, 1 Day
[2] = 10^−2 gr/gram of calcium aluminate, 1 Hour
[3] = 10^−2 gr/gram of calcium aluminate, 1 Week
[4] = 10^−2 grams ciprofloxacin per gram of calcium aluminate, one week
[5] = 10^−3 gr/gram of calcium aluminate, 1 Day
[6] = 10^−3 gr/gram of calcium aluminate, 1 Hour
[7] = 10^−3 gr/gram of calcium aluminate, 1 Week
[8] = 10^−4 gr/gram of calcium aluminate, 1 Day
[9] = 10^−4 gr/gram of calcium aluminate, 1 Hour
[10] = 10^−4 gr/gram of calcium aluminate, 1 Week

CN(C)[C@@H]1C(O)=C(C(N)=O)C(=O)[C@@]2(O)C(O)=C3C(=O)c4c(O)ccc(Cl)c4[C@@H](O)[C@H]3C[C@@H]12 [democlotetracycline] was tested, and the “effectiveness of other tetracyclines (in words)” value (selected bacterium) was “effective”.

In the case of O=C(O)c1cn(C2CC2)c2cc(N3CCNCC3)c(F)cc2c1=O [ciprofloxacin, Ciprofloxacin], the “Kirby-Bauer Inhibition Zone” value (Staph. A.; [1]) is reported as 29 mm, the “Kirby-Bauer Inhibition Zone” value (Staph. A.; [2]) is reported as 34 mm and the “Kirby-Bauer Inhibition Zone” value (Staph. A.; [3]) is reported as 32 mm. The “inhibition (in words)” value (Staph. A.; [4]) was “effective for one week”, the “Kirby-Bauer Inhibition Zone” value (Staph. A.; [5]) was 5 mm and the “Kirby-Bauer Inhibition Zone” value (Staph. A.; [6]) was 27 mm. For the same compound, the “Kirby-Bauer Inhibition Zone” value (Staph. A.; [7]) was 21 mm, the “Kirby-Bauer Inhibition Zone” value (Staph. A.; [8]) was 0 mm and the “Kirby-Bauer Inhibition Zone” value (Staph. A.; [9]) was 7 mm. The “Kirby-Bauer Inhibition Zone” value (Staph. A.; [10]) was 0 mm, the “Kirby-Bauer Inhibition Zone” value (Pseudo. A.; [1]) was 35 mm and the “Kirby-Bauer Inhibition Zone” value (Pseudo. A.; [2]) was 44 mm. The “Kirby-Bauer Inhibition Zone” value (Pseudo. A.; [3]) was 39 mm, the “inhibition (in words)” value (Pseudo. A.; [4]) was “effective for one week” and the “Kirby-Bauer Inhibition Zone” value (Pseudo. A.; [5]) was 19 mm. The “Kirby-Bauer Inhibition Zone” value (Pseudo. A.; [6]) was 34 mm, the “Kirby-Bauer Inhibition Zone” value (Pseudo. A.; [7]) was 21 mm and the “Kirby-Bauer Inhibition Zone” value (Pseudo. A.; [8]) was 0 mm. For the same compound, the “Kirby-Bauer Inhibition Zone” value (Pseudo. A.; [9]) was 21 mm, the “Kirby-Bauer Inhibition Zone” value (Pseudo. A.; [10]) was 0 mm and the “zone compared with control disk (in words)” value (staphylococcus aureus; 10^−2 g/g concentration) was “equivalent to the control disk”. The “zone compared with control disk (in words)” value (staphylococcus aureus; 10^−3 g/g) was “somewhat less”, the “effect of rinsing the pellet to remove surface antibiotic” value (staphylococcus aureus; rinsed vs not rinsed) was “had no effect” and the “Kirby-Bauer Inhibition Zone” value (E. Coli; [1]) was 37 mm. The “Kirby-Bauer Inhibition Zone” value (E. Coli; [2]) was 49 mm, the “Kirby-Bauer Inhibition Zone” value (E. Coli; [3]) was 44 mm and the “inhibition (in words)” value (E. Coli; [4]) was “effective for one week”. For the same compound, the “Kirby-Bauer Inhibition Zone” value (E. Coli; [5]) was 27 mm, the “Kirby-Bauer Inhibition Zone” value (E. Coli; [6]) was 42 mm and the “Kirby-Bauer Inhibition Zone” value (E. Coli; [7]) was 33 mm. The “Kirby-Bauer Inhibition Zone” value (E. Coli; [8]) was 22 mm, the “Kirby-Bauer Inhibition Zone” value (E. Coli; 10^−4 gr/gram of calcium aluminate, 1 Hour after setting, saline 37° C.) was 34 mm and the “Kirby-Bauer Inhibition Zone” value (E. Coli; [10]) was 23 mm.

CN(C)[C@@H]1C(=O)C(C(N)=O)=C(O)[C@@]2(O)C(=O)C3=C(O)c4c(O)cccc4[C@@](C)(O)[C@H]3C[C@@H]12 [tetracycline, Tetracycline] was tested, and the “inhibition zones (in words)” value (selected bacterium; disks made with concentrations of 1 and 10 mg/ml) was “effective in creating large inhibition zones”, the “bacterial growth adjacent to the disks (in words)” value (from here on “bacterial growth adjacent”) (Bacillus cereus) was “prevented” and the “bacterial growth adjacent” value (Corynebacterium spp.) was “prevented”. The “bacterial growth adjacent” value (Esccherichia coli) was “prevented”, the “bacterial growth adjacent” value (Pasteurella multocida) was “prevented” and the “bacterial growth adjacent” value (Staphylococcus spp.) was “prevented”. The “inhibition of bacterial growth by concrete disks (in words)” value (bacterial growth) was “perform in the same way as the disks in example one”.

For CN(C)[C@@H]1C(O)=C(C(N)=O)C(=O)[C@@]2(O)C(O)=C3C(=O)c4c(O)cccc4[C@@](C)(O)[C@H]3[C@H](O)[C@@H]12 [oxytetracycline], the “effectiveness of other tetracyclines (in words)” value (selected bacterium) was “effective”.
